Common to all, as to assay type: cell-based
Experiment [1] has as its system CCR5. In words: CCR5 staining with 6-TG selection in mPB CD34+ cells. As to conditions: 100 nM of 6TG day 4 to 14, flow at day 14; without 6TG 44.9%. Here is the method: Assay protocols and results for CCR5 staining with 6-TG selection in sh734-KI mPB CD34+ cells (i.e. Mobilized CD34+ cells cultured with TPO/SCF/FLT3/IL3 and Knock-out of CCR5 and knock-in of sh734 in CD34+ cells)
Nanocapsules were formulated to contain CRISPR/Cas9/gRNAR targeting CCR5/mi-sh734 expression cassette HDR template CRISPR machinery complex (see methods). Cd34+ cells were thawed and pre-stimulated in x-vivo 10 with 100 ng/mL of TPO/SCF/FLT4/IL3 for overnight. Then 500 ng of Cas9-CCR5-gRNA-3G-mi-sh734 nanocapsules were added into 5×10^4 cells per well and 100 nM of 6TG was added into culture media from day 4 to 14. The flow analysis was carried out at day 14.
6-TG selection was examined using VCN/InDel data. mPB CD34+ were transfected/transduced as indicated in FIG. 8A Nanocapsules were formulated to contain CRISPR/Cas9/gRNAR targeting CCR5/mi-sh734 expression cassette HDR template CRISPR machinery complex (see methods). Cd34+ cells were thawed and prestimulated in X-vivo 10 with 100 ng/mL of TPO/SCF/FLT4/IL3 for overnight. Then 500 ng of Cas9-CCR5-gRNA-3G-mi-sh734 nanocapsules were added into 5×10^4 cells per well and 100 nM of 6TG was added into culture media from day 4 to 14. The flow analysis was carried out at day 14.

For experiment [2], the system named is CEM cells. In words: Negative selection with MTX or MPA on transduced or transfected CEM cells. The following applies: for GFP-population of transduced cells (HPRT knockdown): FIG. 10A, CEM experiment; for HPRT knockout population of CEM cells: FIG. 10B. Here is the method: FIGS. 10A and 10B illustrate the effect of negative selection with 300 nM of MTX, 1 uM and 10 uM of MPA on CEM cells transduced with sh7-GFP lentiviral vector or transfected with RNP targeting HPRT1 nanocapsules.
Transduced or transfected CEM cells (such as those from Example 6) were cultured with or without MTX from day 0 to day 14. The medium was refreshed every 3 to 4 days. GFP was analyzed on flow machine and InDel % was analyzed by T7E1 assay.

Experiment [3] concerns K562 cells. In words: Negative selection with MTX on transduced or transfected K562 cells. The following applies: 0.3 uM of MTX. As for the experimental part: FIGS. 9A and 9B illustrate the effect of negative selection with 300 nM of MTX on K562 cells transduced with sh7-GFP lentiviral vector or transfected with RNP targeting HPRT1 nanocapsules.
Transduced or transfected K562 cells (such as those from Example 5) were cultured with or without MTX from day 0 to day 14. The medium was refreshed every 3 to 4 days. GFP was analyzed on flow machine and InDel % was analyzed by T7E1 assay. […] FIG. 9B illustrated that the transfected K562 cells were eliminated under treatment with 0.3 uM of MTX at a faster pace as compared with the HPRT-KD population.

Consider `Nc1nc2nc[nH]c2c(=S)[nH]1` [6TG, 6-thioguanine], for which, in experiment [1], the “CCR5+ of CD34+ cells with 6TG treatment (no nanocapsule)” value is given as 43.4%.
Regarding `COc1c(C)c2c(c(O)c1C/C=C(\C)CCC(=O)O)C(=O)OC2` [MPA, mycophenolic acid], the “GFP-population of transduced cells (HPRT knockdown)” value in experiment [2] (1 uM of MPA) and in experiment [2] (10 uM of MPA) was “decreased” each time. Also, the “HPRT knockout population of CEM cells” value in experiment [2] (1 uM of MPA) and in experiment [2] (10 uM of MPA) was “eliminated at a faster pace” in each case.
In the case of `CN(Cc1cnc2nc(N)nc(N)c2n1)c1ccc(C(=O)N[C@@H](CCC(=O)O)C(=O)O)cc1` [MTX, methotrexate], the “GFP-population of transduced K562 cells (HPRT knockdown)” value in experiment [3] (FIG. 9A, day 0 to day 14) is on record as “decreased”. In experiment [3] (FIG. 9B, compared with the HPRT-KD population), the “transfected (HPRT knockout) K562 cells” value is recorded as “eliminated”. In experiment [2] (0.3 uM of MTX), the “GFP-population of transduced cells (HPRT knockdown)” value was “decreased” and the “HPRT knockout population of CEM cells” value is given as “eliminated at a faster pace”.

Source of the values: patent US20210322331A1, “NANOCAPSULES FOR THE DELIVERY OF CELL MODULATING AGENTS” (CSL BEHRING LLC, priority 2018, published 2021).
